Data on 26 molecules can be found in patent publication US3931314A, “Benzophenone derivatives and process for their production” (Cassella Farbwerke Mainkur Aktiengesellschaft, priority 1972, dated 1976).

Bounds are passed on as bounds.

The subject of one series is central nervous system. Briefly: climbing test on albino mice, sedative action on the central nervous system. Format: in vivo. As to conditions: Mus musculus, po, read-out: Sedative action % (percentage of animals which no longer take up the climbing work); for responders at 8 mg/kg: dose 8 mg/kg p.o.; for responders at 10 mg/kg: dose 10 mg/kg p.o. As for the experimental part: The pharmacological investigation of the sedative action on the central nervous system was carried out using the climbing tests on albino mice described by P. K. KNEIP: Arch. int. pharmacodyn 126, 238 (1960) and R. DOMENJOZ and W. THEOBALD: Arch. int. pharmacodyn 120, 450 (1959).
In the table which follows, the results of the pharmacological investigations carried out are summarised. In the last table under the heading "Sedative action %" there is given the percentage of the experimental animals which no longer take up the normally readily assumed climbing work.

Series [1] is described as follows: LD50 (mouse), acute toxicity. As to conditions: in vivo.

Usually LD50 stands for the dose expected to kill half of the subjects tested. Turning to `Cc1ccc(N(C)C(=O)CNC(C)CC#N)c(C(=O)c2ccccc2)c1` (stereo not shown), the responders at 8 mg/kg in the series with central nervous system is 70%. The molecule further displayed an LD50 in series [1] (ip) of 300 mg/kg.

Turning to `CN(C(=O)CNCC#N)c1ccc(Cl)cc1C(=O)c1ccccc1` [2-(4-Cyano-N-methyl-3-aza-butanamido)-5-chlor-benzophenone], the responders at 8 mg/kg in the series on central nervous system came out at 60%. Besides, in series [1] (ip), the LD50 was determined as 170 mg/kg.

On to `COC(=O)CNCC(=O)N(C)c1ccc(Cl)cc1C(=O)c1ccccc1` [2-(4-Methoxycarbonyl-N-methyl-3-aza-butanamido)-5-chlor-benzophenone], for which the responders at 10 mg/kg with central nervous system came out at 50%. For the same molecule, the LD50 in series [1] (po) turned out to be 950 mg/kg.

With `CN(CCC(=O)O)CC(=O)Nc1ccc(Cl)cc1C(=O)c1ccccc1` [2-(5-Carboxy-3-methyl-3-aza-pentanamido)-5-chlor-benzophenone], in the series on central nervous system, the responders at 8 mg/kg was 90%. The molecule also yielded an LD50 in series [1] (ip) of 450 mg/kg.

On to `C=CCN(CCC#N)CC(=O)Nc1ccc(Cl)cc1C(=O)c1ccccc1Cl` [2-(5-Cyano-3-allyl-3-aza-pentanamido)-2'-5-dichlor-benzophenone], for which the responders at 8 mg/kg in the series with central nervous system was found to be 60%. The molecule further showed an LD50 in series [1] (ip) of 630 mg/kg.

Turning to `CC(C#N)CNCC(=O)Nc1ccc(Cl)cc1C(=O)c1ccccc1` (stereo not shown) [2-(5-Cyano-3-aza-hexanamid0)-5-chlor-benzophenone], the responders at 8 mg/kg in the series with central nervous system is 50%. The molecule further had an LD50 in series [1] (ip) of 600 mg/kg.

As to `CC(CC#N)NCC(=O)Nc1ccccc1C(=O)c1ccccc1` (stereo not shown) [2-(5-Cyano-4-methyl-3-aza-pentanamido)-benzophenone], the responders at 10 mg/kg in the series with central nervous system amounted to 50%. In addition, in series [1] (po), the LD50 is over 1000 mg/kg.

`CC(CC#N)N(C)CC(=O)N(C)c1ccc(Cl)cc1C(=O)c1ccccc1` (stereo not shown) [2-(5-Cyano-N,3,4-trimethyl-3-aza-pentanamido)-5-chlor-benzophenone]: in the series on central nervous system (dose 9 mg/kg p.o.), the responders at 9 mg/kg was 50%. Besides, the LD50 in series [1] (ip) was determined as 320 mg/kg.

As for `CC(C#N)CN(C)CC(=O)N(C)c1ccc([N+](=O)[O-])cc1C(=O)c1ccccc1` (stereo not shown) [2-(5-Cyano-N,3-dimethyl-3-aza-hexanamido)-5-nitro-benzophenone], the responders at 10 mg/kg in the series on central nervous system is 60%. The LD50 in series [1] (ip) is 480 mg/kg; in series [1] (po) it was 1100 mg/kg.

Turning to `CN(CCC#N)CC(=O)N(C)c1ccc(Cl)cc1C(=O)c1ccccc1` [2-(5-Cyano-N,3-dimethyl-3-aza-pentanamido)-5-chlor-benzophenone], the responders at 8 mg/kg in the series with central nervous system came to 50%. In series [1] (ip), the LD50 worked out at 240 mg/kg.

As for `CN(CCC#N)CC(=O)N(C)c1ccc([N+](=O)[O-])cc1C(=O)c1ccccc1` [2-(5-Cyano-N,3-dimethyl-3-aza-pentanamido)-5-nitro-benzophenone], in the series with central nervous system, the responders at 10 mg/kg came out at 50%. In addition, in series [1] (po), the LD50 is over 1000 mg/kg.

Turning to `CC(CC#N)NCC(=O)N(C)c1ccc(Cl)cc1C(=O)c1ccccc1` (stereo not shown) [2-(5-Cyano-N,4-dimethyl-3-aza-pentanamido)-5-chlor-benzophenone], the responders at 8 mg/kg with central nervous system came out at 50%. For the same molecule, the LD50 in series [1] (ip) is 315 mg/kg.

`COc1ccc(N(C)C(=O)CNC(C)CC#N)c(C(=O)c2ccccc2)c1` (stereo not shown) [2-(5-Cyano-N,4-dimethyl-3-aza-pentanamido)-5-methoxy-benzophenone]: in the series with central nervous system, the responders at 8 mg/kg came out at 60%. Besides, in series [1] (ip), the LD50 is 250 mg/kg.

Consider `CC(CC#N)NCC(=O)N(C)c1ccccc1C(=O)c1ccccc1` (stereo not shown) [2-(5-Cyano-N,4-dimethyl-3-aza-pentanamido)-benzophenone], for which, in the series with central nervous system, the responders at 8 mg/kg was found to be 70%. Moreover, the LD50 in series [1] (ip) was 320 mg/kg.

Regarding `COc1ccc(N(C)C(=O)CNCCC#N)c(C(=O)c2ccccc2)c1` [2-(5-Cyano-N-methyl-3-aza-pentanamido)-5-methoxy-benzophenone], the responders at 8 mg/kg in the series with central nervous system worked out at 50%.

Turning to `Cc1ccc(N(C)C(=O)CNCCC#N)c(C(=O)c2ccccc2)c1` [2-(5-Cyano-N-methyl-3-aza-pentanamido)-5-methyl-benzophenone], in the series on central nervous system, the responders at 8 mg/kg is 50%.

As to `CCCCN(CCC#N)CC(=O)N(C)c1ccc(Cl)cc1C(=O)c1ccccc1` [2-(5-Cyano-N-methyl-3-n-butyl-3-aza-pentanamido)-5-chlor-benzophenone], in the series on central nervous system, the responders at 8 mg/kg worked out at 80%. In series [1] (ip), this molecule showed an LD50 of 360 mg/kg.

Take `CCCCN(CCC#N)CC(=O)N(C)c1ccc([N+](=O)[O-])cc1C(=O)c1ccccc1` [2-(5-Cyano-N-methyl-3-n-butyl-3-aza-pentanamido)-5-nitro-benzophenone]: in the series with central nervous system, the responders at 8 mg/kg turned out to be 50%. In series [1] (ip), the LD50 was 680 mg/kg.

For `CCOC(=O)CCNCC(=O)Nc1ccc(Cl)cc1C(=O)c1ccccc1Cl` [2-(5-ethoxycarbonyl-3-aza-pentanamido)-2',5-dichlor-benzophenone], the responders at 8 mg/kg in the series on central nervous system amounted to 70%.

With `CCOC(=O)CCNCC(=O)N(C)c1ccc(C)cc1C(=O)c1ccccc1` [2-(5-ethoxycarbonyl-N-methyl-3-aza-pentanamido)-5-methyl-benzophenone], in the series with central nervous system, the responders at 8 mg/kg was determined as 50%.

Regarding `CCOC(=O)CCNCC(=O)N(C)c1ccc(SC)cc1C(=O)c1ccccc1` [2-(5-ethoxycarbonyl-N-methyl-3-aza-pentanamido)-5-methylmerkapto-benzophenone], the responders at 8 mg/kg with central nervous system is 60%.

In the case of `CCOC(=O)CCNCC(=O)N(C)c1ccc(C(F)(F)F)cc1C(=O)c1ccccc1` [2-(5-ethoxycarbonyl-N-methyl-3-aza-pentanamido)-5-trifluormethyl-benzophenone], in the series with central nervous system, the responders at 8 mg/kg was 60%. In series [1] (ip), the LD50 came out at 400 mg/kg.

Regarding `CN(CCCC#N)CC(=O)Nc1ccc(Cl)cc1C(=O)c1ccccc1` [2-(6-Cyano-3-methyl-3-aza-hexanamido)-5-chlor-benzophenone], in the series with central nervous system, the responders at 8 mg/kg was found to be 60%.

`CCOC(=O)CCCNCC(=O)Nc1ccc([N+](=O)[O-])cc1C(=O)c1ccccc1` [2-(6-ethoxycarbonyl-3-aza-hexanamido)-5-nitro-benzophenone]: the responders at 8 mg/kg in the series with central nervous system amounted to 50%.

Turning to `CCOC(=O)CCCNCC(=O)N(C)c1ccc([N+](=O)[O-])cc1C(=O)c1ccccc1` [2-(6-ethoxycarbonyl-N-methyl-3-aza-hexanamido)-5-nitro-benzophenone], in the series on central nervous system, the responders at 8 mg/kg is 60%. The molecule further gave an LD50 in series [1] (ip) of 650 mg/kg.

As to `CCCC(C)(COC(N)=O)COC(N)=O` [Meprobamate, reference compound], the responders at 70 mg/kg in the series on central nervous system (dose 70 mg/kg p.o., comparative preparation) was 50%. Moreover, the LD50 in series [1] (ip) worked out at 620 mg/kg.
